Assay [1] deals with recombinant human TTK protein (Homo sapiens (Human), UniProt P33981). The experiment in a line: Evaluation of TTK activity inhibitory ability (scintillation counting).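 Further: reaction stopped with 0.5% phosphoric acid, spotted on P30 filter, TTK activity counted by scintillation, uninhibited no-compound wells taken as 100% control.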 It counts as biochemical. The conditions noted are these: TTK inhibitory activity; read-out: IC50.
Description: To determine the ability of a compound represented by Chemical Formula 1 according to the present invention to inhibit TTK activity, the following experiment was conducted.
After that, the reaction was terminated by adding phosphoric acid to a concentration of 0.5%, and 10 of the reaction solution was dropped onto a P30 filter. […] The activity of TTK was measured through scintillation counting. The activity value from the group with no compound was set as 100% of control, and the degree of TTK inhibition by the compound was calculated.
Assay [2] has as its system MDA-MB-231 triple negative breast cancer cell line. The experiment in a line: Cytotoxicity in TTK-expressed MDA-MB-231 cells. The conditions noted are these: Homo sapiens, MDA-MB-231, 120 h, 5 days. The class given is cell-based. The method, then: To determine the cytotoxicity of a compound represented by Chemical Formula 1 according to the present invention to MDA-MB-231 cells, the following test was conducted.
MDA-MB-231 triple negative breast cancer cell line purchased from ATCC was inoculated into each well of a 96-well plate at a volume of 90 μL containing 2,000 cells. Thereafter, an example compound of the present invention was added to respective wells at concentrations of 10 μM, 3 μM, 1 μM, 0.3 μM, 0.1 μM, and 0 μM, and the cells were cultured in a cell incubator at 37° C. for 5 days. Five days later, 10 μL of Cyto X solution (manufacturer: LPS Solution) was added to each of the wells, and the absorbance was measured at 450 nm using an Epoch microplate spectrophotometer (manufacturer: BioTek Instruments Inc.) according to the product's user guide. For cytotoxicity, the IC50 value for cytotoxicity of each compound was calculated by quantifying the number of cells using the measured value.

Assay [3] concerns HCT116 colon cancer cell line. The experiment in a line: Cytotoxicity in TTK-expressed HCT116 cells. The class given is cell-based. The note with it: Homo sapiens, HCT-116, 120 h, 5 days. The method, then:
To determine the cytotoxicity of a compound represented by Chemical Formula 1 according to the present invention to HCT116 cells, the following test was conducted.
HCT116 colon cancer cell line purchased from ATCC was inoculated into each well of a 96-well plate at a volume of 90 μL containing 2,000 cells. Thereafter, an example compound of the present invention was added to respective wells at concentrations of […], 3 μM, 1 μM, 0.3 μM, 0.1 μM, and 0 μM, and the cells were cultured in a cell incubator at 37° C. for 5 days. After 5 days, the number of cells was measured by CCK8 test method, and the cytotoxicity was determined by calculating the IC50 value for cytotoxicity of each compound.

Some results are limits rather than exact numbers.

Chain of recombinant human TTK protein (P33981 whole entry): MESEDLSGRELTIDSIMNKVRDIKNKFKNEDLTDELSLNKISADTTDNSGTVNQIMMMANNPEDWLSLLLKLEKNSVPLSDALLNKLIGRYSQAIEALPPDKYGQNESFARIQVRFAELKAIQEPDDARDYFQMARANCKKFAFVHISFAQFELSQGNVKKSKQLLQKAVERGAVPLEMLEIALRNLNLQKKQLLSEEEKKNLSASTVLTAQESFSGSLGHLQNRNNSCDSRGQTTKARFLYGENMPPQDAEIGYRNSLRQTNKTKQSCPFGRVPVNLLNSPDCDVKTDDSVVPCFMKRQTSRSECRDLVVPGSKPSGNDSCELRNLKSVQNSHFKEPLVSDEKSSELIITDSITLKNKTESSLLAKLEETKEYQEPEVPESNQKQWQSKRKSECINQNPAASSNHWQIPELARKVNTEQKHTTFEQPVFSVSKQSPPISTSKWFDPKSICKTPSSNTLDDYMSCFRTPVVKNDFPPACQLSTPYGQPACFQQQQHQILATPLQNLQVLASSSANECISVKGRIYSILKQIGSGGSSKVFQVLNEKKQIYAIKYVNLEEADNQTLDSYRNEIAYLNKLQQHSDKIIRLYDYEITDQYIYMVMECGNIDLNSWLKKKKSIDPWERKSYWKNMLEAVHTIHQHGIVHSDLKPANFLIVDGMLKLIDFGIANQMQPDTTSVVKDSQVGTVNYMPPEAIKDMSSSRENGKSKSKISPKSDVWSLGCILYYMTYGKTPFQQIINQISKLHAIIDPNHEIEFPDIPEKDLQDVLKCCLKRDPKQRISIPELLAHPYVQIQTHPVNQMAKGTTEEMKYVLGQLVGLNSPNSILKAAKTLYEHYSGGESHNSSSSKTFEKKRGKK

As usually defined, the IC50 is the concentration at which inhibition is half-maximal. For the molecule `COc1cc(N2CCOCC2)ccc1Nc1nc(NC2CCOCC2)c2c(-c3ncco3)n[nH]c2n1` [Compound 8-22, N^6-(2-methoxy-4-morpholinophenyl)-3-(oxazol-2-yl)-N^4-(tetrahydro-2H-pyran-4-yl)-1H-pyrazolo[3,4-d]pyrimidine-4,6-diamine], the IC50 in assay [1] was less than 30 nM; in assay [2] it was 500 to 1000 nM; in assay [3] it was less than 150 nM.

In the case of `COc1cc(N2CCOCC2)ccc1Nc1nc(NC2CCCCC2)c2c(-c3ccc4[nH]cnc4c3)n[nH]c2n1` [Compound 8-16, 3-(1H-benzo[d]imidazol-5-yl)-N^4-cyclohexyl-N^6-(2-methoxy-4-morpholinophenyl)-1H-pyrazolo[3,4-d]pyrimidine-4,6-diamine], the IC50 in assay [1] was 30 to 100 nM; in assay [2], 500 to 1000 nM; in assay [3], less than 150 nM.

In the case of `COc1cc(N2CCOCC2)ccc1Nc1nc(NC2CCCCC2)c2c(-c3cnco3)n[nH]c2n1` [Compound 18-1, N^4-cyclohexyl-N^6-(2-methoxy-4-morpholinophenyl)-3-(oxazol-5-yl)-1H-pyrazolo[3,4-d]pyrimidine-4,6-diamine], the IC50 in assay [1] is less than 30 nM; in assay [2], less than 150 nM; in assay [3], less than 150 nM.

Consider `CNC(=O)c1ccc(Nc2nc(NC3CCOCC3)c3c(-c4cnco4)n[nH]c3n2)c(OC)c1` [Compound 33-2, 3-methoxy-N-methyl-4-((3-(oxazol-5-yl)-4-((tetrahydro-2H-pyran-4-yl)amino)-1H-pyrazolo[3,4-d]pyrimidin-6-yl)amino)benzamide], for which the figures for the IC50 in assay [1], in assay [2] and in assay [3] were less than 30 nM, 150 to 500 nM and 500 to 1000 nM, respectively.

For `COc1cc(N2CCOCC2)ccc1Nc1nc(NC2CCCCC2)c2c(-c3nnco3)n[nH]c2n1` [Compound 14-2, N^4-cyclohexyl-N^6-(2-methoxy-4-morpholinophenyl)-3-(1,3,4-oxadiazol-2-yl)-1H-pyrazolo[3,4-d]pyrimidine-4,6-diamine], the IC50 was 30 to 100 nM in assay [1], 150 to 500 nM in assay [2] and 150 to 500 nM in assay [3].

Take `COc1cc(N2CCOCC2)ccc1Nc1nc(NC2CCCCC2)c2c(-c3cnoc3)n[nH]c2n1` [Compound 8-20, N^4-cyclohexyl-3-(isoxazol-4-yl)-N^6-(2-methoxy-4-morpholinophenyl)-1H-pyrazolo[3,4-d]pyrimidine-4,6-diamine]: the 50% inhibitory concentration (IC50) is less than 30 nM in assay [1], less than 150 nM in assay [2] and less than 150 nM in assay [3].

Consider `COc1cc(N2CCOCC2)ccc1Nc1nc(NC2CCCCC2)c2c(-c3cnn(C(F)F)c3)n[nH]c2n1` [Compound 8-12, N^4-cyclohexyl-3-(1-(difluoromethyl)-1H-pyrazol-4-yl)-N^6-(2-methoxy-4-morpholinophenyl)-1H-pyrazolo[3,4-d]pyrimidine-4,6-diamine], for which the IC50 in assay [1] lay within 30 to 100 nM; in assay [2] it was 150 to 500 nM; in assay [3], 150 to 500 nM.

For `COc1cc(N2CCOCC2)ccc1Nc1nc(NCC2CCCO2)c2c(-c3cnoc3)n[nH]c2n1` (stereo not shown) [Compound 8-35, 3-(Isoxazol-4-yl)-N^6-(2-methoxy-4-morpholinophenyl)-N^4-((tetrahydrofuran-2-yl)methyl)-1H-pyrazolo[3,4-d]pyrimidine-4,6-diamine], the IC50 in assay [1] is less than 30 nM; in assay [2] it was more than 1000 nM; in assay [3], more than 1000 nM.

As to `COc1cc(N2CCOCC2)ccc1Nc1nc(NC2CCCCC2)c2c(-c3ccc4nc(C)oc4c3)n[nH]c2n1` [Compound 8-18, N^4-cyclohexyl-N^6-(2-methoxy-4-morpholinophenyl)-3-(2-methylbenzooxazol-6-yl)-1H-pyrazolo[3,4-d]pyrimidine-4,6-diamine], the figures for the IC50 in assay [1], in assay [2] and in assay [3] were 30 to 100 nM, 150 to 500 nM and less than 150 nM, respectively.

With `COc1cc(N2CCOCC2)ccc1Nc1nc(NC2CCOCC2)c2c(-c3ccn(C)n3)n[nH]c2n1` [Compound 8-25, N^6-(2-methoxy-4-morpholinophenyl)-3-(1-methyl-1H-pyrazol-3-yl)-N^4-(tetrahydro-2H-pyran-4-yl)-1H-pyrazolo[3,4-d]pyrimidine-4,6-diamine], the values for the IC50 in assay [1], in assay [2] and in assay [3] were less than 30 nM, 150 to 500 nM and 150 to 500 nM, respectively.

For `COc1cc(N2CCOCC2)ccc1Nc1nc(NC2CCOCC2)c2c(-c3cnoc3)n[nH]c2n1` [Compound 8-21, 3-(Isoxazol-4-yl)-N^6-(2-methoxy-4-morpholinophenyl)-N^4-(tetrahydro-2H-pyran-4-yl)-1H-pyrazolo[3,4-d]pyrimidine-4,6-diamine], the IC50 lay within 30 to 100 nM in assay [1], 500 to 1000 nM in assay [2] and 500 to 1000 nM in assay [3].

With `COc1cc(N2CCOCC2)ccc1Nc1nc(NC2CCCCC2)c2c(-c3ccco3)n[nH]c2n1` [Compound 8-14, N^4-cyclohexyl-3-(furan-2-yl)-N^6-(2-methoxy-4-morpholinophenyl)-1H-pyrazolo[3,4-d]pyrimidine-4,6-diamine], the IC50 in assay [1] lay within 30 to 100 nM; in assay [2], 150 to 500 nM; in assay [3], 150 to 500 nM.

As for `CNC(=O)c1cccc(-c2n[nH]c3nc(Nc4ccc(N5CCOCC5)cc4OC)nc(NC4CCCCC4)c23)c1` [Compound 8-5, 3-(4-(cyclohexylamino)-6-((2-methoxy-4-morpholinophenyl)amino)-1H-pyrazolo[3,4-d]pyrimidin-3-yl)-N-methylbenzamide], the IC50 in assay [2] and in assay [3] was more than 1000 nM each time.

For the molecule `COc1cc(-c2nncn2C)ccc1Nc1nc(NC2CCOCC2)c2c(-c3cnco3)n[nH]c2n1` [Compound 33-3, N^6-(2-methoxy-4-(4-methyl-4H-1,2,4-triazol-3-yl)phenyl)-3-(oxazol-5-yl)-N^4-(tetrahydro-2H-pyran-4-yl)-1H-pyrazolo[3,4-d]pyrimidine-4,6-diamine], the IC50 is less than 30 nM in assay [1], 500 to 1000 nM in assay [2] and more than 1000 nM in assay [3].

Regarding `COc1cc(N2CCOCC2)ccc1Nc1nc(NCC2CCCO2)c2c(-c3cnn(C)c3)n[nH]c2n1` (stereo not shown) [Compound 8-34, N^6-(2-methoxy-4-morpholinophenyl)-3-(1-methyl-1H-pyrazol-4-yl)-N^4-((tetrahydrofuran-2-yl)methyl)-1H-pyrazolo[3,4-d]pyrimidine-4,6-diamine], the IC50 is less than 30 nM in assay [1], more than 1000 nM in assay [2] and more than 1000 nM in assay [3].

With `Cn1cc(-c2n[nH]c3nc(NC4CCC(N5CCOCC5)CC4)nc(NC4CCCCC4)c23)cn1` (stereo not shown) [Compound 8-30, N^4-cyclohexyl-3-(1-methyl-1H-pyrazol-4-yl)-N^6-(4-morpholinocyclohexyl)-1H-pyrazolo[3,4-d]pyrimidine-4,6-diamine], the IC50 in assay [1] was 100 to 300 nM; in assay [2], more than 1000 nM.

Turning to `COc1cc(N2CCOCC2)ccc1Nc1nc(NC2CCCCC2)c2c(-c3cncs3)n[nH]c2n1` [Compound 8-15, N^4-cyclohexyl-N^6-(2-methoxy-4-morpholinophenyl)-3-(thiazol-5-yl)-1H-pyrazolo[3,4-d]pyrimidine-4,6-diamine], the IC50 in assay [1] is less than 30 nM; in assay [2], 150 to 500 nM; in assay [3] it was 150 to 500 nM.

For `CNC(=O)c1ccc(Nc2nc(NC3CCCCC3)c3c(-c4cnn(C)c4)n[nH]c3n2)c(OC)c1` [Compound 11-3, 4-((4-(cyclohexylamino)-3-(1-methyl-1H-pyrazol-4-yl)-1H-pyrazolo[3,4-d]pyrimidin-6-yl)amino)-3-methoxy-N-methylbenzamide], the figures for the IC50 in assay [1], in assay [2] and in assay [3] were less than 30 nM, less than 150 nM and 150 to 500 nM, respectively.

For `COc1cc(C(=O)N2CCN(C)CC2)ccc1Nc1nc(NC2CCCCC2)c2c(-c3cnn(C)c3)n[nH]c2n1` [Compound 11-5, (4-((4-(cyclohexylamino)-3-(1-methyl-1H-pyrazol-4-yl)-1H-pyrazolo[3,4-d]pyrimidin-6-yl)amino)-3-methoxyphenyl)(4-methylpiperazin-1-yl)methanone], the IC50 was in the range of 30 to 100 nM in assay [1], 500 to 1000 nM in assay [2] and 150 to 500 nM in assay [3].

Turning to `COc1cc(N2CCOCC2)ccc1Nc1nc(NC2CCCCC2)c2c(-c3ccc4[nH]ncc4c3)n[nH]c2n1` [Compound 8-17, N^4-cyclohexyl-3-(1H-indazol-5-yl)-N^6-(2-methoxy-4-morpholinophenyl)-1H-pyrazolo[3,4-d]pyrimidine-4,6-diamine], the IC50 in assay [2] and in assay [3] was 500 to 1000 nM in each case.

On to `COc1cc(N2CCOCC2)ccc1Nc1nc(NC2CCCCC2)c2c(-c3cccc(C(N)=O)c3)n[nH]c2n1` [Compound 8-2, 3-(4-(Cyclohexylamino)-6-((2-methoxy-4-morpholinophenyl)amino)-1H-pyrazolo[3,4-d]pyrimidin-3-yl)benzamide], for which the IC50 in assay [2] and in assay [3] was more than 1000 nM each time.

With `COc1cc(N2CCOCC2)ccc1Nc1nc(NC2CCCCC2)c2c(-c3cccc(NC(=O)C4CC4)c3)n[nH]c2n1` [Compound 8-4, N-(3-(4-(cyclohexylamino)-6-((2-methoxy-4-morpholinophenyl)amino)-1H-pyrazolo[3,4-d]pyrimidin-3-yl)phenyl)cyclopropanecarboxamide], the IC50 was 500 to 1000 nM in assay [2] and more than 1000 nM in assay [3].

For the origin of these results see patent publication US20250145625A1, “PYRAZOLOPYRIMIDINE DERIVATIVE AND ANTICANCER PHARMACEUTICAL COMPOSITION CONTAINING SAME AS ACTIVE INGREDIENT” (KOREA RESEARCH INSTITUTE OF CHEMICAL TECHNOLOGY, priority 2021, published 2025).
